Target: Substance-P receptor (Homo sapiens, UniProt P25103)
Assay: Tested for the binding affinity against neurokinin NK1 receptor

Chain of Substance-P receptor (P25103 whole entry): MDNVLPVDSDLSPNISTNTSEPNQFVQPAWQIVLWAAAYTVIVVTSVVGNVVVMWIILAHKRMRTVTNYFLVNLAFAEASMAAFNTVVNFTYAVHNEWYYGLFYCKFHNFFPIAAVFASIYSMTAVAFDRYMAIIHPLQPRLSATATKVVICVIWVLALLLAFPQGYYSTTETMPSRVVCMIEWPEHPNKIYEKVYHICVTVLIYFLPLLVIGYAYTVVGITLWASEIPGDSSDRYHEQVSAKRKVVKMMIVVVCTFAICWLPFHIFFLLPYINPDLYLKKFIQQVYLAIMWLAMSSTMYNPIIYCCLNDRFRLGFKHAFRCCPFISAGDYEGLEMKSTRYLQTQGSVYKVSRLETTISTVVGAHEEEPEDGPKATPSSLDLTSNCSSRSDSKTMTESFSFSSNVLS

SMILES | IC50 [nM]
Cc1cc(C)cc(/C(F)=C2/CC[C@H](NC(=O)c3ccnc4ccccc34)C[C@H]2Cc2ccccc2)c1 | 380
Cc1cc(C)cc(C(=O)N2CC[C@H](NC(=O)c3ccnc4ccccc34)C[C@H]2Cc2ccccc2)c1 | 15
Cc1cc(C)cc(/C(F)=C2/CC[C@@H](NC(=O)c3ccnc4ccccc34)C[C@@H]2Cc2ccccc2)c1 | > 10000
Cc1cc(C)cc(/C(F)=C2\CC[C@H](NC(=O)c3ccnc4ccccc34)C[C@H]2Cc2ccccc2)c1 | > 10000
Cc1cc(C)cc(/C(F)=C2\CCC(NC(=O)c3ccnc4ccccc34)CC2Cc2ccccc2)c1 (racemic) | 620
Cc1cc(C)cc(/C(F)=C2/CCC(NC(=O)c3ccnc4ccccc34)CC2Cc2ccccc2)c1 (racemic) | 710
Cc1cc(C)cc(/C(F)=C2\CC[C@@H](NC(=O)c3ccnc4ccccc34)C[C@@H]2Cc2ccccc2)c1 | 270
